Tested on: cardiac stomach preparations
Experiment: In vitro contraction of cardiac stomach preparations
Parameters: species or system Asterias rubens
Settings: words, ArBN 10^-9 to 10^-6 M
Procedure: ArBN (EPRRNYNRVFGPTY-NH2), ArBN5-14 (NYNRVFGPTY-NH2), and ArBNP65-81 (EPMPSSLALYIANLSP-NH2), were tested for effects on in vitro cardiac stomach and tube foot preparations from A. rubens. The preparations were dissected as described previously ([43], [59]–[61]), with the organs immersed in ice-cold artificial seawater during dissection. A description of the methods employed for investigation of in vitro effects of ArBN on cardiac stomach and tube foot preparations from A. rubens is included in SI Appendix, SI Methods. […]
Wax was removed from slides using xylene (3 × 10 min) and then slides were immersed in 100% ethanol (2 × 10 min). 0.3% hydrogen peroxide (VWR Chemicals, UK) in methanol was used to quench endogenous peroxidases for 30 min and then an ethanol series (90%, 70%, 50%), distilled water and PBST were used to rehydrate the tissue sections. 5% goat serum (Sigma-Aldrich, UK) made up in PBST was used for blocking for 2 h at room temperature. […]
All the dissected preparations were set up in an aerated organ bath filled with 20 ml artificial seawater maintained at approximately 11°C. Changes in the contractile state of preparations were detected by the transducer, which was linked via a bridge amplifier (FE221 Bridge Amp, ADInstruments Ltd, Oxford, UK) to data acquisition hardware (PowerLab 2/36, ADInstruments Ltd, Oxford, UK). […]

Substance | effect on cardiac stomach preparations
NYNRVFGPTY-NH2 [ArBN5-14, C-terminally amidated 10-residue peptide corresponding to the C-terminal region of ArBN] | neither ArBN5-14 nor ArBNP65-81 had any observable effect
EPMPSSLALYIANLSP-NH2 [ArBNP65-81, C-terminally amidated 16-residue peptide predicted to be derived from residues 65 to 81 of ArBNP] | neither ArBN5-14 nor ArBNP65-81 had any observable effect

From publication PMC12002301, “Discovery and functional characterization of a bombesin-type neuropeptide signaling system in an invertebrate” (Proceedings of the National Academy of Sciences of the …, 2025)
